# Source: patent publication US20180243327A1, “USE OF SECOISOLARICIRESINOL DIGLUCOSIDES (SDGs) AND RELATED COMPOUNDS FOR PROTECTION AGAINST RADIATION DAMAGE” (THE TRUSTEES OF THE UNIVERSITY OF PENNSYLVANIA, priority 2015, published 2018)
# Legend:
# [1] = Antioxidant and free radical scavenging characteristics
# Excerpt: FIG. 1. Bioactive polyphenolic plant lignans in flaxseed and radiation Damage. Secoisolariciresinol diglucoside (SDG) is the major lignan phenolic in flaxseed. Due to complex SDG extraction, purification and enrichment methods from natural resources, SDG was chemically synthesized. […] (B) The structure of SDG.
# [2] = system: human precision-cut lung slices (huPCLS); experiment: Antioxidant gene levels (qPCR) in huPCLS after 4 Gy proton radiation; type: cell-based; settings: 50 Mm LGM2605 given 4 hours prior, 30 min and 24 hours post irradiation, normalized to 18S rRNA
# Experimental: (§1) FIG. 2: Novel Ex vivo model of human lung: human precision-cut lung slices for radiation exposure. Human Precision-cut slice preparation: Slices (huPCLS) were obtained by inflating the donor human lung with low melting temperature agarose, sectioning, coring, and slicing, as shown above. The 350 μm thick slices were washed three times with culture medium to rid airways of agarose and are viable at 37 °C, up to a week.
# FIG. 4: qPCR analysis of (A) HMOX-1 and (B) NQO1 in huPCLS after 30 min and 24 hours post 4 Gy proton radiation with or without SDG pretreatment for 4 hours. Data are represented as average fold change from non-irradiated control±SEM. Transcript levels of tested genes are normalized to 18S rRNA. *p<0.05.
# (§2) Methods: Since the testing of our hypothesis in human tissues is critical and cannot be mechanistically pursued in patients, we pursued a novel approach, using an ex vivo model of human normal lung precision-cut sections (huPCLS), used for the first time to our knowledge, in radiation studies. The huPCLS consist of all relevant cell types of the respiratory tract, situated in their microanatomical environment, validated for pharmacological testing. […] Tissues were evaluated 30 min and 24 hours post irradiation for gene expression, protein level changes, and betagalactosidase activity, relevant to inflammation, oxidative stress and senescence.
# [3] = system: human precision-cut lung slices (huPCLS); experiment: Proinflammatory cytokine gene levels (qPCR) in huPCLS after 4 Gy proton radiation; type: cell-based; settings: 50 Mm LGM2605 given 4 hours prior, 30 min and 24 hours post irradiation, normalized to 18S rRNA
# Experimental: as §1
# FIG. 3: Evaluation of inflammatory markers, in huPCLS, at 30 min and 24 hours post 4 Gy proton radiation with or without SDG pre-treatment for 4 hours. Transcript levels of (A) IL1B, (B) IL6 and (C) TNF-alpha are normalized to 18S rRNA. *p<0.05.
# (§3) Methods: Since the testing of our hypothesis in human tissues is critical and cannot be mechanistically pursued in patients, we pursued a novel approach, using an ex vivo model of human normal lung precision-cut sections (huPCLS), used for the first time to our knowledge, in radiation studies. The huPCLS consist of all relevant cell types of the respiratory tract, situated in their microanatomical environment, validated for pharmacological testing. Human lung sections were exposed to 4 Gy proton radiation in the presence of 0 and 50 Mm LGM2605, given 4 hours prior to exposure. Tissues were evaluated 30 min and 24 hours post irradiation for gene expression, protein level changes, and betagalactosidase activity, relevant to inflammation, oxidative stress and senescence.
# [4] = system: human precision-cut lung slices (huPCLS); experiment: SA-β-Gal staining of huPCLS post proton radiation; type: cell-based; settings: 24 hour post proton radiation, 50 Mm LGM2605 given 4 hours prior
# Experimental: as §1
# FIG. 5: LGM2605 reduces senescent-like phenotype of huPCLS. […] A) SA-β-Gal staining of huPCLS at 24 hour post proton radiation. B) Quantification of the β-gal positive stained cells. Percentage change of the β-gal positive cells of the irradiated huPCLS compared to the nonirradiated huPCLS.
# as §2
# [5] = Activity of synthetic SDG compared with natural SDG; settings: synthetic vs natural counterpart
# Excerpt: Using a mouse model of proton radiation exposure, we have identified dose-dependent pathophysiological changes in the lung. […] Thus, we further hypothesize that LGM2605 will be effective against proton-induced pulmonary damage, such as inflammation, oxidative stress and senescence.
# [6] = system: human precision-cut lung slices (huPCLS); experiment: Senescence marker gene levels (qPCR) in huPCLS after 4 Gy proton radiation; type: cell-based; settings: 50 Mm LGM2605 given 4 hours prior, 30 min and 24 hours post irradiation
# Experimental: as §1
# (§4) FIG. 6: LGM2605 decreases Proton Radiation-induced Senescence Markers, both at the Gene and Protein Level, in huPCLS. […] Transcript levels of tested genes are normalized to 18S rRNA.*p<0.05.
# as §3
# [7] = system: human precision-cut lung slices (huPCLS); experiment: Senescence marker protein levels (Western Blot of whole tissue lysates) in huPCLS treated with proton; type: cell-based; settings: proton radiation, 50 Mm LGM2605 given 4 hours prior
# Experimental: as §1, §4, §3
compound,measurement,setting,value
"COc1cc(C[C@@H](CO[C@@H]2O[C@H](CO)[C@@H](O)[C@H](O)[C@H]2O)[C@H](CO[C@@H]2O[C@H](CO)[C@@H](O)[C@H](O)[C@H]2O)Cc2ccc(O)c(OC)c2)ccc1O [LGM2605, secoisolariciresinol diglucoside]",antioxidant and free radical scavenging characteristics,[1],"strong antioxidant and free radical, scavenging characteristics"
same,antioxidant HO (HMOX-1) gene level,[2],increase
same,antioxidant NQO1 gene level,[2],increase
same,IL-1β (IL1B) inflammatory marker gene level,[3],reduction
same,IL-6 (IL6) inflammatory marker gene level,[3],reduction
same,TNFα inflammatory marker gene level,[3],reduction
same,senescent-like phenotype (SA-β-galactosidase positive staining),[4],protects huPCLS from a senescent-like phenotype
same,activity relative to natural SDG,[5],equipotent activity with its natural counterpart
same,CDKN2A senescent marker gene level,[6],reduces
same,TP53 senescent marker gene level,[6],reduces
same,p16 senescent marker protein level,[7],reduces
same,p53 senescent marker protein level,[7],reduces
